Experimental data: patent US20160340334A1, “METHOD FOR ISOLATION OF ALKALOIDS AND AMINO ACIDS, AND CO[…] ALKALOIDS AND AMINO ACIDS” (priority 2015, published 2016)

Columns and labels:
migraine = settings: tryptophan administered in the form of 5-HTP; cited from earlier work
[1] = nicotine after extraction (Example 1); clinical studies
[2] = test system: models of Parkinson's disease; settings: intermittent nicotine treatment; cited from earlier work

N[C@@H](Cc1c[nH]c2ccc(O)cc12)C(=O)O [5-HTP, 5-Hydroxytryptophan]
aborting or significantly mitigating pain after onset of a migraine (migraine): ineffective | effect in migraine prevention (migraine): only moderate effects

CN1CCCC1c1cccnc1 (stereo not shown) [nicotine]
side effects on use for treatment [1]: without side effects such as tachyphylaxis | reduction of medication-induced dyskinesias [2]: ≤ 50%
